# Literature values as cited in patent publication US20070167440A1, “Novel pyrrolidine compound and a process for preparing the same” (priority 2004, published 2007).
# System: gastric motility
# Conditions: mice; disclosed in JP1993-17434
smiles,measurement,value
COc1cc(N)c(Cl)cc1C(=O)NC1CC(CO)N(C(c2ccccc2)c2ccccc2)C1 (stereo not shown) [4-amino-5-chloro-N-[1-(diphenylmethyl)-5-(hydroxymethyl)-3-pyrrolidinyl]-2-methoxy-benzamide],gastric motility,increased gastric motility
